Measurements reported in BigSolDB 2.1.

C[C@@H]1CC[C@H]2[C@@H](C)C(=O)O[C@@H]3O[C@@]4(C)CC[C@@H]1[C@]32OO4
solubility (mole fraction)
Details | 284.15 K | 289.15 K | 295.15 K | 298.15 K | 304.15 K | 309.15 K | 314.15 K | 319.15 K | 323.15 K
in 2-butanone | 0.0163 | 0.0212 | 0.0292 | 0.0337 | 0.046 | 0.0585 | 0.0762 | 0.0919 | 0.117
in MTBE | 0.00109 | 0.00154 | 0.00234 | 0.00285 | 0.00421 | 0.00579 | 0.0079 | 0.0107 | 0.0136
in acetone | 0.00405 | 0.0053 | 0.0073 | 0.00848 | 0.0115 | 0.0147 | 0.0187 | 0.0236 | 0.0284
in acetonitrile | 0.00084 | 0.00112 | 0.00157 | 0.00184 | 0.00254 | 0.00329 | 0.00424 | 0.00544 | 0.00661
in ethanol | 0.00236 | 0.00305 | 0.00412 | 0.00475 | 0.00631 | 0.00796 | 0.01 | 0.0125 | 0.0149
in ethyl acetate | 0.00557 | 0.00784 | 0.0118 | 0.0142 | 0.0208 | 0.0283 | 0.0383 | 0.0514 | 0.0647
in isopropyl acetate | 0.00683 | 0.00838 | 0.0107 | 0.012 | 0.015 | 0.0182 | 0.0218 | 0.0261 | 0.0301
in methanol | 0.00056 | 0.00078 | 0.00117 | 0.00142 | 0.00207 | 0.00281 | 0.0038 | 0.00508 | 0.00639
in n-butanol | 0.00085 | 0.00127 | 0.00203 | 0.00253 | 0.00394 | 0.00563 | 0.00799 | 0.0112 | 0.0147
in n-heptane | 5.1e-05 | 7.2e-05 | 0.000113 | 0.00013 | 0.000202 | 0.000282 | 0.000383 | 0.000531 | 0.000684
in n-hexane | 5e-05 | 7e-05 | 0.000111 | 0.000132 | 0.000201 | 0.00028 | 0.000381 | 0.000534 | 0.000681
in toluene | 0.017 | 0.0226 | 0.0316 | 0.0369 | 0.0507 | 0.0656 | 0.0843 | 0.108 | 0.131
